Source: the supplement of paper PMC10307832

Experiments:
Assay in all cases: relative viability (nuclei count vs DMSO), 5 days (fraction); higher = more cells survive
Neratinib + Alpelisib = compound: CCOc1cc2ncc(C#N)c(Nc3ccc(OCc4ccccn4)c(Cl)c3)c2cc1NC(=O)/C=C/CN(C)C [Neratinib] + Cc1nc(NC(=O)N2CCC[C@H]2C(N)=O)sc1-c1ccnc(C(C)(C)C(F)(F)F)c1 [Alpelisib] (partner 2 µM)
Summary of the method: (§1)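 Relative viability is defined as nuclei in treated wells over nuclei in vehicle wells. Duplicate plates were run and medians reported. Lung cancer cell lines in 1536-well plates were dosed by pin tool one day after seeding, with one drug or with a fixed anchor-drug dose plus five library-drug doses (not always all listed) in √10 steps, and nuclei were counted after 5 days.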

Neratinib + Pictilisib = compound: CCOc1cc2ncc(C#N)c(Nc3ccc(OCc4ccccn4)c(Cl)c3)c2cc1NC(=O)/C=C/CN(C)C [Neratinib] + CS(=O)(=O)N1CCN(Cc2cc3nc(-c4cccc5[nH]ncc45)nc(N4CCOCC4)c3s2)CC1 [Pictilisib] (partner 1 µM)
Summary of the method: as §1

Neratinib + AZD7762 = compound: CCOc1cc2ncc(C#N)c(Nc3ccc(OCc4ccccn4)c(Cl)c3)c2cc1NC(=O)/C=C/CN(C)C [Neratinib] + NC(=O)Nc1cc(-c2cccc(F)c2)sc1C(=O)N[C@H]1CCCNC1 [AZD7762] (partner 0.2 µM)
Summary of the method: as §1

Neratinib + Phenformin = compound: CCOc1cc2ncc(C#N)c(Nc3ccc(OCc4ccccn4)c(Cl)c3)c2cc1NC(=O)/C=C/CN(C)C [Neratinib] + N=C(N)NC(=N)NCCc1ccccc1 [Phenformin] (partner 250 µM)
Summary of the method: as §1

Row | Cell Line | relative viability (Neratinib + Alpelisib; first compound 0.01 µM) | relative viability (Neratinib + Alpelisib; first compound 0.03162 µM) | relative viability (Neratinib + Alpelisib; first compound 0.1 µM) | relative viability (Neratinib + Alpelisib; first compound 0.3162 µM) | relative viability (Neratinib + Alpelisib; first compound 1 µM) | relative viability (Neratinib + Pictilisib; first compound 0.01 µM) | relative viability (Neratinib + Pictilisib; first compound 0.03162 µM) | relative viability (Neratinib + Pictilisib; first compound 0.1 µM) | relative viability (Neratinib + Pictilisib; first compound 0.3162 µM) | relative viability (Neratinib + Pictilisib; first compound 1 µM) | relative viability (Neratinib + AZD7762; first compound 0.01 µM) | relative viability (Neratinib + AZD7762; first compound 0.03162 µM) | relative viability (Neratinib + AZD7762; first compound 0.1 µM) | relative viability (Neratinib + AZD7762; first compound 0.3162 µM) | relative viability (Neratinib + AZD7762; first compound 1 µM) | relative viability (Neratinib + Phenformin; first compound 0.01 µM) | relative viability (Neratinib + Phenformin; first compound 0.03162 µM) | relative viability (Neratinib + Phenformin; first compound 0.1 µM) | relative viability (Neratinib + Phenformin; first compound 0.3162 µM) | relative viability (Neratinib + Phenformin; first compound 1 µM)
1 | NCI-H2405 | 0.815 | 0.808 | 0.811 | 0.633 | 0.287 | 0.522 | 0.547 | 0.515 | 0.399 | 0.29 | 0.818 | 0.799 | 0.751 | 0.635 | 0.446 | 0.421 | 0.393 | 0.414 | 0.33 | 0.359
2 | NCI-H3122 | 0.951 | 0.746 | 0.586 | 0.829 | 0.299 | 0.634 | 0.589 | 0.474 | 0.619 | 0.214 | 1.05 | 1 | 0.88 | 1.01 | 0.438 | 0.366 | 0.407 | 0.317 | 0.35 | 0.187
3 | PC-3 [JPC-3] | 1.07 | 1.07 | 1.02 | 0.918 | 0.316 | 0.81 | 0.739 | 0.616 | 0.536 | 0.473 | 0.798 | 0.863 | 0.856 | 0.487 | 0.51 | 0.459 | 0.497 | 0.432 | 0.365 | 0.336
4 | PC-14 | 1.04 | 0.978 | 0.83 | 0.732 | 0.208 | 0.927 | 0.805 | 0.66 | 0.121 | 0.101 | 0.366 | 0.41 | 0.36 | 0.242 | 0.134 | 0.602 | 0.764 | 0.655 | 0.267 | 0.186
5 | RERF-LC-KJ | 0.842 | 0.841 | 0.709 | 0.577 | 0.394 | 0.554 | 0.501 | 0.435 | 0.384 | 0.276 | 1.06 | 1.1 | 0.741 | 0.734 | 0.679 | 0.427 | 0.405 | 0.385 | 0.318 | 0.353
